*1 amine or outer side, *2 acyl side, *3 side chain or, on linkers, in order; H or OH if unused. Where no end group is shown, it is not given here. Side-chain parts run from the residue outwards. The star is where a group is joined. C18 diacid = O=C(O)CCCCCCCCCCCCCCCCC(=O)*; γGlu = O=C(O)[C@H](CCC(=O)[*:2])N[*:1]; AEEA = NCCOCCOCC(=O)O
Assays:
Assay type in all cases: cell-based
[1] = target: T1, human GLP-2R (Homo sapiens, UniProt O95838); test: cAMP assay (HitHunter) in transiently transfected COS-7 cells expressing human GLP-2R
T1 construct: host or cells: COS-7
T1 sequence (O95838 1-553): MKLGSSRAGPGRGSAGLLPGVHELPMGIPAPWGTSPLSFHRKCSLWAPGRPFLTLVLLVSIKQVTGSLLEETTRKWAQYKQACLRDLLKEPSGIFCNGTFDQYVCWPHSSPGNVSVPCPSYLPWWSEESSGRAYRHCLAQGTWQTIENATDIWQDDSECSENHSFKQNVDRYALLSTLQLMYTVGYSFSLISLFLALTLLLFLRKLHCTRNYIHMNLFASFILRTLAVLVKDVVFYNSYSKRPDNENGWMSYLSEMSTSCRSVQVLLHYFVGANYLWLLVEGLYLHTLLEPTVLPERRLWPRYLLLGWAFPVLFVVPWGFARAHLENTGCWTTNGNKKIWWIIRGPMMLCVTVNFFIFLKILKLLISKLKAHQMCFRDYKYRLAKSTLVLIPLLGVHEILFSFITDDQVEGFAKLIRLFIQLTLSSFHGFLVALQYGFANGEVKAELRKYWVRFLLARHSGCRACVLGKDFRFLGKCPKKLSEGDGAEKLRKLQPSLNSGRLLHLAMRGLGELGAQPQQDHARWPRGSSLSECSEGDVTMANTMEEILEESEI

[2] = target: human glucagon receptor (GCGR) (Homo sapiens, UniProt P47871); test: Gs activation measured as cAMP accumulation on human glucagon receptor (FIG. 1 radar plot); conditions: read-out: −p Log EC50 on human glucagon receptor (GCGR) (converted)
Excerpt: Here, the compounds 20, 21, 22, 28, 30, 31,32, 33, 34, 35 are shown in terms of their potencies in Gs activation, measured as CAMP accumulation, depicted in a radar plot. The numbers refer to −p Log EC50 values. […] The outer rings correspond to higher potencies, the inner rings correspond to lower potencies.

[3] = target: T2, human SNAP-tagged GIPR (Homo sapiens, UniProt P48546); test: Receptor internalization assay, HEK293A cells expressing human SNAP-tagged GIPR
T2 construct: host or cells: HEK293A
T2 sequence (P48546 22-466): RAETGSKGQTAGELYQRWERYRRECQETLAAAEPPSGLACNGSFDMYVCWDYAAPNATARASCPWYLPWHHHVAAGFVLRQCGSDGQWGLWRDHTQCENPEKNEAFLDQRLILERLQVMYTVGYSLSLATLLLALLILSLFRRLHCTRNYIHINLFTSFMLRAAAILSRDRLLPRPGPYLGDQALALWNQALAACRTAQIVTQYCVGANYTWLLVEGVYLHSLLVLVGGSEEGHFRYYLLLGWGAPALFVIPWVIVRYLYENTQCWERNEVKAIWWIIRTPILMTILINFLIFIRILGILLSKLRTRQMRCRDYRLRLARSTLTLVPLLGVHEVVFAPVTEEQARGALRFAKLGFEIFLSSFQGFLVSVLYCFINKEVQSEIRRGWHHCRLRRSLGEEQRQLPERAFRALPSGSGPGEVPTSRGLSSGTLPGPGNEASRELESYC

[4] = target: T3, human SNP-tagged GLP-2R (Homo sapiens, UniProt O95838); test: Receptor internalization assay, HEK293A cells expressing human SNAP-tagged GLP-2R
T3 construct: expressed in transfected cells; host or cells: HEK293A
T3 sequence (O95838 1-553): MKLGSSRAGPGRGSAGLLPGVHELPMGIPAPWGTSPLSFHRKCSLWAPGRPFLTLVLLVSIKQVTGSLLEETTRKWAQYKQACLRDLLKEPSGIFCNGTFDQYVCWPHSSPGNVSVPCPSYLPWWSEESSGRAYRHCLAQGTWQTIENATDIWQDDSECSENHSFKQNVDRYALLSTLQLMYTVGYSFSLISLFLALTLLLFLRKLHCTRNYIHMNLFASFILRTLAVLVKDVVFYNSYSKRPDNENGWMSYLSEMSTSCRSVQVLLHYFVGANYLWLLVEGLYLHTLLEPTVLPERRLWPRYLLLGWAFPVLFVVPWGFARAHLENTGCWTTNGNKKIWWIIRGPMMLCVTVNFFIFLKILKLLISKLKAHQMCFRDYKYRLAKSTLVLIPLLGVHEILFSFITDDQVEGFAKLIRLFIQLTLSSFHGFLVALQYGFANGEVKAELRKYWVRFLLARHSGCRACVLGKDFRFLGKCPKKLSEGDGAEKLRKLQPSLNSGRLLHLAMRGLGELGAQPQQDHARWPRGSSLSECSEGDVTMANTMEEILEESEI

[5] = target: T4, human GLP-1R (Homo sapiens, UniProt P43220); test: cAMP assay (HitHunter) in transiently transfected COS-7 cells expressing human GLP-1R
T4 construct: host or cells: COS-7

[6] = target: T5, human SNAP-tagged GLP-1R (Homo sapiens, UniProt P43220); test: Receptor internalization assay, HEK293A cells expressing human SNAP-tagged GLP-1R
T5 construct: expressed in transfected cells; host or cells: HEK293A

[7] = target: T6, human GIPR (Homo sapiens, UniProt P48546); test: cAMP assay (HitHunter) in transiently transfected COS-7 cells expressing human GIPR
T6 construct: host or cells: COS-7
T6 sequence (P48546 22-466): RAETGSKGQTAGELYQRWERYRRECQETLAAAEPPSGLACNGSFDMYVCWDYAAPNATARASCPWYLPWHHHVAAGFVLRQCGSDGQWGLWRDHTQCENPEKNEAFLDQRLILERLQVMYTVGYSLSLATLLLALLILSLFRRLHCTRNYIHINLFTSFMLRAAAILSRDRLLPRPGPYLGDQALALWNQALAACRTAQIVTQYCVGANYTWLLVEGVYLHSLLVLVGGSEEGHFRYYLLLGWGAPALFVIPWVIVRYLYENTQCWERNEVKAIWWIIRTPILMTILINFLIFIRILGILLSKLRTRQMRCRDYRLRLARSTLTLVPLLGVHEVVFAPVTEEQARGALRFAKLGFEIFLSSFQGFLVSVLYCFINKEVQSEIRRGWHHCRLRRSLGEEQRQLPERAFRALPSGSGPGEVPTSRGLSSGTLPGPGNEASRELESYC

[8] = AUC of sigmoid curves up to 1 μM, 60 minutes at 37° C.

T5 sequence (P43220 24-463): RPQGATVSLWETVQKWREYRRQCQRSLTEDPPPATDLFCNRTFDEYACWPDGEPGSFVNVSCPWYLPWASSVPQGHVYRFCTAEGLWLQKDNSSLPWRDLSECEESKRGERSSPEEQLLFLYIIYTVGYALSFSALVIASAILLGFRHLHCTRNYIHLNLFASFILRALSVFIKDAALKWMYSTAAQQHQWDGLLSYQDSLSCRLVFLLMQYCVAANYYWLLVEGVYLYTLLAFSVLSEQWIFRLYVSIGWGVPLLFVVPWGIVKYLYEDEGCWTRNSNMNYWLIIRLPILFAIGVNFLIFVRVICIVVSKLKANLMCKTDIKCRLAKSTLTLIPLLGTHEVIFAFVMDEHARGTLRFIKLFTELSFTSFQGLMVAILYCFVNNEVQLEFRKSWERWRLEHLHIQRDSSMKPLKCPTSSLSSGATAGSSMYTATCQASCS
T4 sequence (P43220 24-463): as above
Sequence of human glucagon receptor (GCGR) (P47871 26-477): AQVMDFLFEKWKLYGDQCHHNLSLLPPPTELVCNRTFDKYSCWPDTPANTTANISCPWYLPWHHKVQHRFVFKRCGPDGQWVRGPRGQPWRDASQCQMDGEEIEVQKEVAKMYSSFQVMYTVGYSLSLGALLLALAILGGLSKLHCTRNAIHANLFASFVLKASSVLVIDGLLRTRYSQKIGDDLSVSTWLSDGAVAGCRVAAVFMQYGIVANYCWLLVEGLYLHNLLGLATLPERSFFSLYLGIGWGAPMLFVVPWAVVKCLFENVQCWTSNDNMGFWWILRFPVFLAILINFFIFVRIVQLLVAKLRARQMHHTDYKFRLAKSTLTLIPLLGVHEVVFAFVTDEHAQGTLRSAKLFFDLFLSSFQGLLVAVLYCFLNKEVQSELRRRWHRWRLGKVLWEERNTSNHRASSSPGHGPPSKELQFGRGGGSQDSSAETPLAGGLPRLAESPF

Emax ([1]; COS-7, normalized to highest concentration of the endogenous ligand, read-out: Efficacy GLP-2R (Emax)): 100%
EC50 ([1]; cAMP, COS-7 cells, human GLP-2R, read-out: logEC50 GLP-2R (converted)): 0.316 nM
EC50 [2]: > 100 nM
Absolute hGIPR internalization (AUC) [3, 8]: 14.2
Relative hGIPR internalization (%) ([3]; relative to hGIP 1-42 = 100): 38%
Absolute hGLP-2R internalization (AUC) [4, 8]: 39.4
GLP-2R internalization (in words) ([4]; compared to native GLP-2): comparable to native GLP-1 and GLP-2
Relative hGLP-2R internalization (%) ([4]; relative to native ligand = 100): 81.0%
Emax ([5]; COS-7, normalized to highest concentration of the endogenous ligand, read-out: Efficacy GLP-1R (Emax)): 112%
EC50 ([5]; cAMP, COS-7 cells, human GLP-1R, read-out: logEC50 GLP-1R (converted)): 0.0398 nM
Absolute hGLP-1R internalization (AUC) [6, 8]: 91.8
GLP-1R internalization (in words) ([6]; compared to native GLP-1): comparable to native GLP-1 and GLP-2
Relative hGLP-1R internalization (%) ([6]; relative to hGLP-1 = 100): 109.14%
Emax ([7]; COS-7, normalized to highest concentration of the endogenous ligand, read-out: Efficacy GIPR (Emax)): 112%
EC50 ([7]; cAMP, COS-7 cells, human GIPR): 0.126 nM
Substance: HADGTFTSDYSIILDK([AEEA-AEEA-γGlu-C18 diacid])LAARDFINWLIQTKGKKNDWKHNITQ-OH [Compound 20]
GIPR internalization (in words) ([3]; compared to native GIP): reduced internalization compared to native GIP

From US20250304644A1, “PEPTIDES TRIPLE AGONISTS OF GIP, GLP-1 AND GLP-2” (BAINAN BIOTECH APS, priority 2021, published 2025)
